Data on 19 compounds can be found in US9580390B2, “Indazole compounds as kinase inhibitors and method of treating cancer with same” (University Health Network, priority 2011, dated 2017).

Molecules are shown by their SMILES. Like-named read-outs stand apart in the source and are kept apart here. A value given as a limit tells only on which side of the number the result lay.

The target in one experiment is T1, human TTK (Homo sapiens, UniProt P33981).
T1 construct: amino terminal GST fusion of full length human TTK; purchased Invitrogen
T1 sequence (P33981 1-857): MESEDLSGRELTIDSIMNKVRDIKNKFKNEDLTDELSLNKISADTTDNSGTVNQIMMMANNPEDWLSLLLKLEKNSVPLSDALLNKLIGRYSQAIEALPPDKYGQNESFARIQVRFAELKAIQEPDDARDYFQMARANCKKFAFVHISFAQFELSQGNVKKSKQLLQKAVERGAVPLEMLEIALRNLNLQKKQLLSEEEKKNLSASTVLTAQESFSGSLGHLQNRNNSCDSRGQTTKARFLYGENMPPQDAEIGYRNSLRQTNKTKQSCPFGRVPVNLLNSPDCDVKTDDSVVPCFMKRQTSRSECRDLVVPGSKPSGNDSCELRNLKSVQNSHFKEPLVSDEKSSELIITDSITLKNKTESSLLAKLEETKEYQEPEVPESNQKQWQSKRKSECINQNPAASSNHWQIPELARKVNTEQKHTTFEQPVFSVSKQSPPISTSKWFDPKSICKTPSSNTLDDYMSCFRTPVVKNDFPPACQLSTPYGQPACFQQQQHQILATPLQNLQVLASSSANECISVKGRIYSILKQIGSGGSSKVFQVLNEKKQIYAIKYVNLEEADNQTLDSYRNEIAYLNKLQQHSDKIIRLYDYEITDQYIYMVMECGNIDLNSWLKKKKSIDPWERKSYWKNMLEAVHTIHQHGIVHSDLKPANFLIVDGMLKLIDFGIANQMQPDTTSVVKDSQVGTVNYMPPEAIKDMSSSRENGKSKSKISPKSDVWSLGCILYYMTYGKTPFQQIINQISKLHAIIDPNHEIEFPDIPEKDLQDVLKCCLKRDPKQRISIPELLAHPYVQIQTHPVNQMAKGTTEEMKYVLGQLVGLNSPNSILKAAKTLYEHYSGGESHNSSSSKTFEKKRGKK
Kind of experiment: TTK inhibition assay (indirect ELISA). Format: biochemical. The note with it: read-out: TTK IC50 Range.

For experiment [1], the system named is ovarian cancer cells (PA-1). The experiment in a line: Cancer cell line growth inhibition (SRB assay). The format is cell-based. The conditions noted are these: PA-1, read-out: Cancer Cell Line GI50 Range PA-1. In general terms: The SRB assay estimates cell density from bound dye.
A further experiment has as its system Breast cancer cells. The experiment in a line: Cancer cell line growth inhibition (SRB assay). Format: cell-based. The conditions noted are these: Homo sapiens; MDA-MB-468; read-out: Cancer Cell Line GI50 Range MDA-MB-468.
Experiment [2] relates to colon cancer cells (HCT116). Kind of experiment: Cancer cell line growth inhibition (SRB assay). The conditions noted are these: read-out: Cancer Cell Line GI50 Range HCT116. The format is cell-based.

Procedure for human TTK: Active TTK was purchased from Invitrogen as an amino terminal GST fusion of full length human TTK. Amino terminal 6 histidine, sumo tagged human TTK (residues 1-275) was expressed in E. coli, and purified to >95% homogeneity by Ni^2+ agarose, gel filtration, and ion exchange chromatography.
TTK activity was measured using an indirect ELISA detection system. GST-TTK (0.68 nM) was incubated in the presence of 16 μM ATP (Sigma cat# A7699), 50 mM Hepes pH 7.2, 1 mM EGTA, 10 mM MgCl2, and 0.1% Pluronic in a 96 well microtitre plate pre-coated with amino terminal 6 histidine, sumo tagged TTK (amino acid residues 1-275). The reaction was allowed to proceed for 30 minutes, followed by 5 washes of the plate with Wash Buffer (phosphate buffered saline supplemented with 0.2% Tween 20), and incubation for 30 minutes with a 1:3000 dilution of primary antibody (Cell Signaling cat# 9381). The plate was washed 5 times with Wash Buffer, incubated for 30 minutes in the presence of secondary antibody coupled to horse radish peroxidase (BioRad cat# 1721019, 1:3000 concentration), washed an additional 5 times with Wash Buffer, and incubated in the presence of TMB substrate (Sigma cat# T0440). The colourimetric reaction was allowed to continue for 5 minutes, followed by addition of stop solution (0.5 N sulphuric acid), and quantified by detection at 450 nm with either a monochromatic or filter based plate reader (Molecular Devices M5 or Beckman DTX880, respectively).
Compounds were pre-incubated in the presence of enzyme for 5 minutes prior to addition of ATP and the activity remaining quantified using the above described activity assay. The % Inhibition of a compound was determined using the following formula: % Inhibition=100×(1−(experimental value−background value)/(high activity control−background value)). The IC50 value was determined using a non-linear 4 point logistic curve fit (XLfit4, IDBS) with the formula: (A+(B/(1+((x/C)^D)))), where A=background value, B=range, C=inflection point, D=curve fit parameter.

For the compound `CN1[C@@H]2CC[C@H]1C[C@@H](Oc1ccc(-c3n[nH]c4ccc(C(=O)NC(c5ccccc5)C(F)F)cc34)cc1)C2` (stereo partly drawn) [Example A227, N-(2,2-difIuoro-1-phenylethyl)-3-(4-(((1R,3R,5S)-8-methyl-8-azabicyclo[3.2.1]octan-3-yl)oxy)phenyl)-1H-indazole-5-carboxamide], the IC50 on human TTK is < 100 nM. The GI50 in experiment [1] (Homo sapiens) was 100 to 500 nM; in the experiment with Breast cancer cells, > 500 nM; in experiment [2] (Homo sapiens, HCT-116), < 100 nM.
For the compound `O=C(N[C@@H](c1ncccn1)C1CCCC1)c1ccc2[nH]nc(-c3ccc(N4CC(C5COC5)C4)cc3)c2c1` [Example A312, (R)-N-(cyclopentyl(pyrimidin-2-yl)methyl)-3-(4-(3-(oxetan-3-yl)azetidin-1-yl)phenyl)-1H-indazole-5-carboxamide], at human TTK, the half-maximal inhibitory concentration (IC50) was < 100 nM. For the same compound, the 50% growth inhibitory concentration (GI50) in experiment [1] (Homo sapiens) was < 100 nM; with Breast cancer cells, < 100 nM; in experiment [2] (Homo sapiens, HCT-116) it was < 100 nM.
In the case of `CN1CCC(CO)(Cc2ccc(-c3n[nH]c4ccc(C(=O)NCC5(N6CCOCC6)CCCCC5)cc34)cc2)CC1` [Example A486, 3-(4-((4-(hydroxylmethyl)-1-methylpiperidin-4-yl)methyl)phenyl)-N-((1-morpholinocyclohexyl)methyl)-1H-indazole-5-carboxamide], at human TTK, the IC50 was < 100 nM. The concentration for 50% growth inhibition (GI50) is 100 to 500 nM in experiment [1] (Homo sapiens); > 500 nM with Breast cancer cells; 100 to 500 nM in experiment [2] (Homo sapiens, HCT-116).
For `CCC(CC)(CNC(=O)c1ccc2[nH]nc(-c3ccc(N4CCN(C)CC4)cc3)c2c1)N1CCOCC1` [Example A465, N-(2-ethyl-2-morpholinobutyl)-3-(4-(4-methylpiperazin-1-yl)phenyl)-1H-indazole-5-carboxamide], the half-inhibitory concentration (IC50) on human TTK is < 100 nM. In addition, the GI50 was < 100 nM in experiment [1] (Homo sapiens); 100 to 500 nM with Breast cancer cells; 100 to 500 nM in experiment [2] (Homo sapiens, HCT-116).
On to `O=C(N[C@@H](c1ccccn1)C1CC1)c1ccc2[nH]nc(-c3ccc(N4C5CCC4CC(O)C5)cc3)c2c1` (stereo partly shown) [Example A512], for which the IC50 on human TTK is < 100 nM. Besides, the figures for the GI50 (in experiment [1]; in the experiment on Breast cancer cells; in experiment [2] (HCT116)) were < 100 nM, 100 to 500 nM and < 100 nM, respectively.
Take `O=C(N[C@@H](c1ccccc1F)C1CC1)c1ccc2[nH]nc(-c3ccc(N4CCN(C5COC5)CC4)cc3)c2c1` [Example A270, (R)-N-(cyclopropyl(2-fluorophenyl)methyl)-3-(4-(4-(oxelan-3-yl)piperazin-1-yl)phenyl)-1H-indazole-5-carboxamide]: the IC50 on human TTK is < 100 nM. Moreover, the concentration for 50% growth inhibition (GI50) was < 100 nM in experiment [1] (Homo sapiens); 100 to 500 nM with Breast cancer cells; < 100 nM in experiment [2] (Homo sapiens, HCT-116).
`CS(=O)(=O)c1cc(-c2n[nH]c3ccc(C(=O)NC(c4ccccn4)C4CC4)cc23)ccc1OC1CCNCC1` (stereo not shown) [Example A243, N-(cyclopropyl(pyridin-2-yl)methyl)-3-(3-(methylsulfonyl)-4-(piperidin-4-yloxy)phenyl)-1H-indazole-5-carboxamide]: the 50% inhibitory concentration (IC50) on human TTK was < 100 nM. For the same compound, the GI50 in experiment [1] (Homo sapiens) is > 500 nM; with Breast cancer cells it was > 500 nM; in experiment [2] (Homo sapiens, HCT-116), > 500 nM.
Take `CN1CC(Oc2ccc(-c3n[nH]c4ccc(C(=O)N[C@H](c5ccccn5)C5CCCC5)cc34)cc2)C1` [Example A295, (S)-N-(cyclopentyl(pyridin-2-yl)methyl)-3-(4-((1-methylazetidin-3-yl)oxy)phenyl)-1H-indazole-5-carboxamide]: the IC50 on human TTK was < 100 nM. The GI50 in experiment [1] (Homo sapiens) was < 100 nM; in the experiment on Breast cancer cells, 100 to 500 nM; in experiment [2] (Homo sapiens, HCT-116) it was < 100 nM.
For `CCC(CC)(CNC(=O)c1ccc2[nH]nc(-c3ccc(N4CCOCC4)cc3)c2c1)N1CCOCC1` [Example A463, N-(2-ethyl-2-morpholinobutyl)-3-(4-morpholinophenyl)-1H-indazole-5-carboxamide], the IC50 at human TTK was < 100 nM. Also, the GI50 in experiment [1] (Homo sapiens) is < 100 nM; in the experiment with Breast cancer cells it was 100 to 500 nM; in experiment [2] (Homo sapiens, HCT-116), 100 to 500 nM.
As for `O=C(NCC1(CN2CCOCC2)CCCCC1)c1ccc2[nH]nc(-c3ccc(N4CCOCC4)cc3)c2c1` [Example A509, N-((1-(morpholinomethyl)cyclohexyl)methyl)-3-(4-morpholinophenyl)-1H-indazole-5-carboxamide], the IC50 at human TTK was < 100 nM. Also, the GI50 in experiment [1] (Homo sapiens) is > 500 nM; in the experiment on Breast cancer cells it was > 500 nM; in experiment [2] (Homo sapiens, HCT-116), > 500 nM.
Consider `O=C(N[C@@H](c1ccccn1)C1CC1)c1ccc2[nH]nc(-c3ccc(N4CC(N5CCOCC5)C4)cc3)c2c1` [Example A316, (R)-N-(cyclopropyl(pyridin-2-yl)methyl)-3-(4-(3-morpholinoazetidin-1-yl)phenyl)-1H-indazole-5-carboxamide], for which the half-maximal inhibitory concentration (IC50) at human TTK was < 100 nM. The GI50 in experiment [1] (Homo sapiens) fell in the range of 100 to 500 nM; with Breast cancer cells, 100 to 500 nM; in experiment [2] (Homo sapiens, HCT-116), 100 to 500 nM.
On to `CN1[C@@H]2CC[C@H]1C[C@@H](Oc1ccc(-c3n[nH]c4ccc(C(=O)NC(c5ccccc5Cl)C5CCCC5)cc34)cc1)C2` (stereo partly drawn) [Example A284, N-((2-chlorophenyl)(cyclopentyl)methyl)-3-(4-(((1R,3R,5S)-8-methyl-8-azabicyclo[3.2.1]octan-3-yl)oxy)phenyl)-1H-indazole-5-carboxamide], for which, at human TTK, the IC50 was < 100 nM. Also, the concentration for 50% growth inhibition (GI50) in experiment [1] (Homo sapiens) was in the range of 100 to 500 nM; in the experiment with Breast cancer cells, 100 to 500 nM; in experiment [2] (Homo sapiens, HCT-116) it was 100 to 500 nM.
As for `O=C(NCC1(N2CCOCC2)CCCOC1)c1ccc2[nH]nc(-c3ccc(N4C5CCC4CC(O)C5)cc3)c2c1` [Example A495, 3-(4-((1R,3R.5S)-3-hydroxy-8-azabicyclo[3.2.1]octan-8-yl)phenyl)-N-((3-morpholinotetrahydro-2H-pyran-3-yl)methyl)-1H-indazole-5-carboxamide], at human TTK, the half-maximal inhibitory concentration (IC50) is < 100 nM. The concentration for 50% growth inhibition (GI50) in experiment [1] (Homo sapiens) is < 100 nM; in the experiment on Breast cancer cells, 100 to 500 nM; in experiment [2] (Homo sapiens, HCT-116) it was 100 to 500 nM.
On to `CC(C)C(NC(=O)c1ccc2[nH]nc(-c3ccc(OC4CN(C)C4)cc3)c2c1)c1ccccc1Cl` (stereo not shown) [Example A289, N-(1-(2-chlorophenyl)-2-methylpropyl)-3-(4-((1-methylazetidin-3-yl)oxy)phenyl)-1H-indazole-5-carboxamide], for which, on human TTK, the concentration for half-maximal inhibition (IC50) was < 100 nM. Besides, the 50% growth inhibitory concentration (GI50) in experiment [1] (Homo sapiens) was 100 to 500 nM; with Breast cancer cells, > 500 nM; in experiment [2] (Homo sapiens, HCT-116) it was 100 to 500 nM.
Regarding `CC(C)C(NC(=O)c1ccc2[nH]nc(-c3ccc(O[C@H]4C[C@H]5CC[C@@H](C4)N5C4COC4)cc3)c2c1)c1ccccc1Cl` (stereo partly drawn) [Example A324, N-(1-(2-chlorophenyl)-2-methylpropyl)-3-(4-(((1R,3R,5S)-8-(oxetan-3-yl)-8-azabicyclo[3.2.1]octan-3-yl)oxy)phenyl)-1H-indazole-5-carboxamide], the concentration for half-maximal inhibition (IC50) at human TTK was < 100 nM. Besides, the concentration for 50% growth inhibition (GI50) was 100 to 500 nM in experiment [1] (Homo sapiens); 100 to 500 nM in the experiment with Breast cancer cells; 100 to 500 nM in experiment [2] (Homo sapiens, HCT-116).
As to `CCC(CC)(CNC(=O)c1ccc2[nH]nc(-c3ccc(OC4CCN(C5COC5)CC4)cc3)c2c1)c1ccccc1` [Example A439, N-(2-ethyl-2-phenylbutyl)-3-(4-((1-(oxetan-3-yl)piperidin-4-yl)oxy)phenyl)-1H-indazole-5-carboxamide], the IC50 at human TTK is < 100 nM. The GI50 in experiment [1] (Homo sapiens) lay in the range of 100 to 500 nM; in the experiment on Breast cancer cells, 100 to 500 nM; in experiment [2] (Homo sapiens, HCT-116), 100 to 500 nM.
As for `Cc1cc(=O)n(C)c2ccc(-c3n[nH]c4ccc(C(=O)N[C@H](c5ccccn5)C5CCCC5)cc34)cc12` [Example A239, (S)-N-(cyclopentyl(pyridin-2-yl)methyl)-3-(1,4-dimethyl-2-oxo-1,2-dihydroquinolin-6-yl)-1H-indazole-5-carboxamide], the IC50 at human TTK was < 100 nM. Further, the 50% growth inhibitory concentration (GI50) is > 500 nM in experiment [1] (Homo sapiens); > 500 nM in the experiment on Breast cancer cells; > 500 nM in experiment [2] (Homo sapiens, HCT-116).
As to `O=C(N[C@H](c1ccccn1)C1CCCC1)c1ccc2[nH]nc(-c3ccc(OC4CC5CCC(C4)N5C4COC4)cc3)c2c1` (stereo partly drawn) [Example A347, N-((S)-cyclopentyl(pyridin-2-yl)methyl)-3-(4-(((1R,3R,5S)-8-(oxetan-3-yl)-8-azabicyclo[3.2.1]octan-3-yl)oxy)phenyl)-1H-indazole-5-carboxamide], the half-maximal inhibitory concentration (IC50) at human TTK is < 100 nM. Moreover, the GI50 was 100 to 500 nM in experiment [1] (Homo sapiens); 100 to 500 nM with Breast cancer cells; < 100 nM in experiment [2] (Homo sapiens, HCT-116).
Turning to `CC(C)C[C@H](NC(=O)c1ccc2[nH]nc(-c3ccc(N4[C@@H]5CCC[C@H]4COC5)cc3)c2c1)c1ccccc1Cl` [Example A417, 3-(4-((1R,5S)-3-oxa-9-azabicyclo[3.3.1]nonan-9-yl)phenyl)-N-((S)-(2-chlorophenyl)-3-methylbutyl)-1 H-indazole-5-carboxamide], the IC50 on human TTK is < 100 nM. Besides, the 50% growth inhibitory concentration (GI50) in experiment [1] (Homo sapiens) lay in the range of 100 to 500 nM; in the experiment with Breast cancer cells, 100 to 500 nM; in experiment [2] (Homo sapiens, HCT-116), 100 to 500 nM.

The term IC50 denotes the point on the concentration scale where inhibition reaches its midpoint. By GI50 is commonly meant the concentration giving 50% growth inhibition.
